Experimental data reported in patent publication US20230129485A1, “SYSTEM AND METHOD FOR DETERMINING MATERIAL PROPERTIES OF MOLECULAR SYSTEMS FROM AN AB-INITIO PARAMETERIZED FORCE-FIELD” (InterX, Inc., priority 2021, published 2023).
Like-named read-outs stand apart in the source and are kept apart here.

Experiments:
[1] = Free energy of hydration predicted with the QM-parameterized force field model (ARROW FF), classical MD and PIMD simulation in a water box; conditions: for Arrow error: Table 5, error of Arrow PIMD8 hydration free energy vs experiment; for Arrow PIMD8 Error: absolute error vs Exp (hydration)
From the text: For example, the example QM-parameterized force-field molecular simulation process 400 can use Bennett Acceptance Ratio (BAR) to compute the free energy of hydration/solvation of the molecule in water or any other solvent. In some implementations, the analysis of the molecular dynamics simulations includes analysis, predication, and visualization of ensemble properties of atoms/molecules from atomic and molecular trajectories using the optimized parameters of the QM-parameterized force field model (i.e., the quantum mechanics rule-based reasoning technique) and the QM-parameterized force field model.
(§1) In some simulations of the QM-parameterized force field molecular simulation process, the molecules were placed in a water or cyclohexane box of size 32×32×32 Å3. Particle-Mesh Ewald (PME) algorithm was used to compute the electrostatic interactions. A 32×32×32 grid mesh and 5th power spline interpolation order can be used to compute the inverse PME sum. 9 Å cutoffs were used to compute the direct PME sum as well as the exchange and dispersion interactions. Bulk corrections were applied to account for distance cut-off of dispersion interactions. Solvation free energies were computed by decoupling the interactions between the solute and the solvent molecules. Electrostatic, exchange-repulsion and dispersion interactions were switched off simultaneously using a lambda-dependent scaling (a scaling factor power=2 was used) and a soft-coring algorithm (maximal soft-coring radius=1.5 Å, soft-coring radius scaling factor power=1). 15 lambda points unequally spaced (X=0, 0.05, 0.1, 0.2, 0.3, 0.4, 0.5, 0.6, 0.7, 0.75, 0.8, 0.85, 0.9, 0.95, 1.0) were used to decouple the solute-solvent intermolecular interactions.
(§2) In some simulations of the QM-parameterized force field molecular simulation process, energy minimization (10,000 steps) using the steepest descent algorithm was initially performed on all the simulation systems. This was followed by a 50 ps equilibration and 1 ns production runs in the isothermal-isobaric ensemble (NPT). […] Pressure was maintained at 1 atm using a MTTK barostat (relaxation time=5 ps). A Multiple Time Step (MTS) algorithm was used to integrate the equations of motion both for the classical and path-integral runs. […] The calculations were performed using the QM-parameterized force field model.
Using the QM-parameterized force field model, the QM-parameterized force field device can compute or predict the solvation free energies using both the Bennett acceptance ratio (BAR) and thermodynamic integration (TI) method with <dH/dλ> values interpolated by cubic splines. […] FIG. 7A illustrates a <dH/dλ> dependence for desolvation of Anthracene in water. FIG. 7B illustrates accumulated statistical errors for TI calculations of AG desolvation of Anthracene in water.

[2] = Free energy of hydration predicted by General Amber Force Field (GAFF), from literature; conditions: Table 5; error of GAFF hydration free energy vs experiment
[3] = Free energy of hydration predicted by polarizable AMOEBA force field, from literature; conditions: Table 5; error of AMOEBA hydration free energy vs experiment
[4] = Free energy of hydration by COSMO implicit solvent model (MolPro ver. 2012); conditions: absolute error vs Exp (hydration)
Method: (§3) Due to unavailability of free energy data for the original COSMO model, the free energies of solvation for the molecule dataset are calculated using MolPro ver. […] The comparisons to other implicit solvent models such as SMD, PCM and COSMO-RS are limited to the overlap of the molecules computed using QM-parameterized force field model. The free energies of hydration as predicted by these implicit solvent models (SMD, PCM) were received.

[5] = experimental, cited from earlier work; for Exp (hydration): Table 5
[6] = Table 5; free energy of hydration, GAFF prediction taken from literature; cited from earlier work
[7] = Table 5; free energy of hydration, AMOEBA prediction taken from literature; cited from earlier work
[8] = Free energy of solvation in cyclohexane predicted with the QM-parameterized force field model (ARROW FF), MD and PIMD; conditions: Table 4; for CHEX Arrow MD Error: error of MD cyclohexane solvation free energy vs experiment; for CHEX Arrow PIMD4 Error: error of PIMD4 cyclohexane solvation free energy vs experiment
From the text: Cyclohexane (CHEX) is nonpolar and equilibrates relatively quickly.
as §1, with “Particle-Mesh” for “In some simulations of the QM-parameterized force field molecular simulation process, the molecules were placed in a water or cyclohexane box of size 32×32×32 Å3. Particle-Mesh”
as §2
Using the QM-parameterized force field model, the QM-parameterized force field device can compute or predict the solvation free energies using both the Bennett acceptance ratio (BAR) and thermodynamic integration (TI) method with <dH/dλ> values interpolated by cubic splines.

[9] = CHEX/H2O partition coefficient (log D) predicted with the QM-parameterized force field model (ARROW FF)
From the text: In some simulations, the example QM-parameterized force-field molecular simulation process includes using the functional form of the bonded interactions, with force constants and equilibrium values fitted to QM energies at the MP2/aug-cc-pVTZ level of theory. In some simulations, solvents of water and cyclohexane are selected. Cyclohexane (CHEX) is nonpolar and equilibrates relatively quickly. Reliable experimental data for both CHEX solvation free energies, as well as for the CHEX/H2O partition coefficients are used in these simulations.
In some example simulations, solutes containing neutral chemical functional groups, for example carboxylic acids, alkanes, alkenes, aromatics, aldehydes, ketones, alcohols, amides, esters, thiols, sulfides, disulfides and heterocycles, are used. The simulations were performed independently by four groups using their own respective computational resources and architectures, and then averaged. FIGS. 9A-9C show solvation and hydration free energies predictions of various solutes, using the QM-parameterized force field model, in some embodiments.
The straight line is a line of agreement between experimental and simulated/predicted values, and the gray bar is the range or chemical accuracy. […] The molecules here are a subset of those in a) because only those with experimental values for CHEX solvation can be included.

[10] = Free energy of hydration by COSMO-RS
Method: as §3

[11] = experimental, cited from earlier work
[12] = CHEX/H2O partition coefficient, experimental, cited from earlier work; for Exp (log D): Table 3; for logD Exp (logD): Table 4
[13] = Free energy of hydration by Solvation Model Dielectric (SMD) implicit solvent model; conditions: absolute error vs Exp (hydration)
Method: as §3

[14] = Free energy of hydration by Polarizable Continuum Model (PCM); conditions: absolute error vs Exp (hydration)
Method: as §3

[15] = implicit solvent model, values received; cited from earlier work
[16] = implicit solvent model, values received; cited from earlier work; remark: listed apart in the source
[17] = Table 3, absolute error of MD hydration free energy vs experiment
[18] = Table 3, absolute error of PIMD8 hydration free energy vs experiment
[19] = Table 3, free energy of hydration
[20] = Table 4, error of MD hydration free energy vs experiment
[21] = Table 4, error of PIMD8 hydration free energy vs experiment
[22] = Table 4, neutral amino-acid analogues
[23] = Table 3, free energy of solvation in cyclohexane
[24] = Table 4, solvation free energy in cyclohexane

SMILES: CCCCS [1-Butanethiol]
- water Arrow MD Error [1, 17]: 4.81 kJ/mol
- water Arrow PIMD8 Error [1, 18]: 2.09 kJ/mol
- Arrow error [1]: 2.09 kJ/mol
- Arrow PIMD8 Error [1]: 2.09 kJ/mol
- GAFF error [2]: 2.89 kJ/mol
- AMOEBA error [3]: 3.64 kJ/mol
- COSMO/Molpro Error [4]: 12.8 kJ/mol
- water Exp (hydration) [5, 19]: -4.14 kJ/mol
- Exp (hydration) ([5]; free energy of hydration): -4.14 kJ/mol
- GAFF [6]: -7.03 kJ/mol
- AMOEBA [7]: -0.502 kJ/mol

SMILES: Cc1c[nH]c2ccccc12 [3-methyl-indole]
- water Arrow MD Error [1, 17]: 8.37 kJ/mol
- water Arrow PIMD8 Error [1, 18]: 4.27 kJ/mol
- water Arrow MD Error [1, 20]: 8.37 kJ/mol
- water Arrow PIMD8 Error [1, 21]: 4.27 kJ/mol
- Arrow PIMD8 Error [1]: 4.27 kJ/mol
- hydration error ([1]; predicted vs experimental free energy of hydration): -4.2 kJ/mol
- CHEX Arrow MD Error [8]: 1 kJ/mol
- CHEX Arrow PIMD4 Error [8]: 0.042 kJ/mol
- log D Arrow MD Error [9]: 1.29
- log D Arrow PIMD Error [9]: 0.76
- logD Arrow MD Error [9]: 1.29
- logD Arrow PIMD Error [9]: 0.76
- COSMO/Molpro Error [4]: 8.16 kJ/mol
- COSMO-RS error [10]: 4.14 kJ/mol
- water Exp (hydration) [5, 19]: -24.6 kJ/mol
- water Exp (hydration) [5, 22]: -24.6 kJ/mol
- CHEX Exp (solvation) [11, 23]: -33.8 kJ/mol
- CHEX Exp (solvation) [11, 24]: -33.8 kJ/mol
- Exp (log D) [12]: 1.61
- logD Exp (logD) [12]: 1.61

SMILES: COC [DiMethylEther]
- water Arrow MD Error [1, 17]: 3.64 kJ/mol
- water Arrow PIMD8 Error [1, 18]: 1.55 kJ/mol
- Arrow error [1]: 1.55 kJ/mol
- Arrow PIMD8 Error [1]: 1.55 kJ/mol
- GAFF error [2]: 4.44 kJ/mol
- AMOEBA error [3]: 1.3 kJ/mol
- COSMO/Molpro Error [4]: 8.33 kJ/mol
- SMD Error [13]: 5.48 kJ/mol
- PCM Error [14]: 0.46 kJ/mol
- water Exp (hydration) [5, 19]: -7.99 kJ/mol
- Exp (hydration) ([5]; free energy of hydration): -7.99 kJ/mol
- GAFF [6]: -3.56 kJ/mol
- AMOEBA [7]: -9.29 kJ/mol
- SMD free energy of hydration [15]: -2.51 kJ/mol
- PCM free energy of hydration [16]: -7.53 kJ/mol

SMILES: CSC [DiMethylSulfide]
- water Arrow MD Error [1, 17]: 2.47 kJ/mol
- water Arrow PIMD8 Error [1, 18]: 0.669 kJ/mol
- Arrow error [1]: 0.669 kJ/mol
- Arrow PIMD8 Error [1]: 0.669 kJ/mol
- GAFF error [2]: 1.3 kJ/mol
- AMOEBA error [3]: 1.3 kJ/mol
- COSMO/Molpro Error [4]: 10.9 kJ/mol
- SMD Error [13]: 5.19 kJ/mol
- PCM Error [14]: 2.34 kJ/mol
- water Exp (hydration) [5, 19]: -6.44 kJ/mol
- Exp (hydration) ([5]; free energy of hydration): -6.44 kJ/mol
- GAFF [6]: -7.74 kJ/mol
- AMOEBA [7]: -7.74 kJ/mol
- SMD free energy of hydration [15]: -1.26 kJ/mol
- PCM free energy of hydration [16]: -8.79 kJ/mol

SMILES: Cc1c[nH]cn1 [Methylimidazole (His)]
- water Arrow MD Error [1, 20]: 1.67 kJ/mol
- water Arrow PIMD8 Error [1, 21]: 0.13 kJ/mol
- CHEX Arrow MD Error [8]: 1.38 kJ/mol
- CHEX Arrow PIMD4 Error [8]: 0.38 kJ/mol
- logD Arrow MD Error ([9]; Table 4, error of MD logD vs experiment): 0.05
- logD Arrow PIMD Error ([9]; Table 4, error of PIMD logD vs experiment): 0.04
- water Exp (hydration) [5, 22]: -42.09 kJ/mol
- CHEX Exp (solvation) [11, 24]: -23.4 kJ/mol
- logD Exp (logD) [12]: −3.28

SMILES: CCCCN [butanamine]
- water Arrow MD Error [1, 17]: 4.9 kJ/mol
- water Arrow PIMD8 Error [1, 18]: 1.17 kJ/mol
- water Arrow MD Error [1, 20]: 4.9 kJ/mol
- water Arrow PIMD8 Error [1, 21]: 1.17 kJ/mol
- Arrow PIMD8 Error [1]: 1.17 kJ/mol
- CHEX Arrow MD Error [8]: 0.25 kJ/mol
- CHEX Arrow PIMD4 Error [8]: 0.25 kJ/mol
- log D Arrow MD Error [9]: 0.81
- log D Arrow PIMD Error [9]: 0.16
- logD Arrow MD Error [9]: 0.81
- logD Arrow PIMD Error [9]: 0.16
- COSMO/Molpro Error [4]: 6.49 kJ/mol
- SMD Error [13]: 3.1 kJ/mol
- PCM Error [14]: 6.02 kJ/mol
- COSMO-RS error [10]: 0.46 kJ/mol
- water Exp (hydration) [5, 19]: -17.7 kJ/mol
- water Exp (hydration) [5, 22]: -17.7 kJ/mol
- CHEX Exp (solvation) [11, 23]: -16.4 kJ/mol
- CHEX Exp (solvation) [11, 24]: -16.4 kJ/mol
- SMD free energy of hydration [15]: -14.6 kJ/mol
- PCM free energy of hydration [16]: -11.7 kJ/mol
- Exp (log D) [12]: −0.23
- logD Exp (logD) [12]: −0.23

SMILES: CCC(=O)O [propionicacid]
- water Arrow MD Error [1, 17]: 1 kJ/mol
- water Arrow PIMD8 Error [1, 18]: 1.05 kJ/mol
- water Arrow MD Error [1, 20]: 1 kJ/mol
- water Arrow PIMD8 Error [1, 21]: 1.05 kJ/mol
- Arrow PIMD8 Error [1]: 1.05 kJ/mol
- CHEX Arrow MD Error [8]: 0.25 kJ/mol
- CHEX Arrow PIMD4 Error [8]: 0.753 kJ/mol
- log D Arrow MD Error [9]: 0.22
- log D Arrow PIMD Error [9]: 0.05
- logD Arrow MD Error [9]: 0.22
- logD Arrow PIMD Error [9]: 0.05
- COSMO/Molpro Error [4]: 8.49 kJ/mol
- SMD Error [13]: 4.02 kJ/mol
- PCM Error [14]: 9.04 kJ/mol
- COSMO-RS error [10]: 0.628 kJ/mol
- water Exp (hydration) [5, 19]: -27 kJ/mol
- water Exp (hydration) [5, 22]: -27 kJ/mol
- CHEX Exp (solvation) [11, 23]: -13.9 kJ/mol
- CHEX Exp (solvation) [11, 24]: -13.9 kJ/mol
- SMD free energy of hydration [15]: -23 kJ/mol
- PCM free energy of hydration [16]: -18 kJ/mol
- Exp (log D) [12]: −2.30
- logD Exp (logD) [12]: −2.30
